The supplement of paper PMC8967900

Tests used:
Test in all cases: selective drug sensitivity score (sDSS, relative to normal bone marrow) (sDSS (score)); higher = more potent and effective on the cell line relative to normal bone marrow cells
Conditions in all cases: 72 h
380 = tested on: 380
697 = tested on: 697
ALL-PO = tested on: ALL-PO
CCRF-HSB2 = tested on: CCRF-HSB2
COG-LL-317 = tested on: COG-LL-317
COG-LL-319h = tested on: COG-LL-319h
COG-LL-394h = tested on: COG-LL-394h
COG-LL-402h = tested on: COG-LL-402h
JURKAT = tested on: JURKAT
KOPN-8 = tested on: KOPN-8
MHH-CALL-2 = tested on: MHH-CALL-2
MHH-CALL-4 = tested on: MHH-CALL-4
MN-60 = tested on: MN-60
MOLT-14 = tested on: MOLT-14
MOLT-16 = tested on: MOLT-16
MOLT-4 = tested on: MOLT-4
P12-ICHIKAWA = tested on: P12-ICHIKAWA
PEER = tested on: PEER
TANOUE = tested on: TANOUE
TMD5 = tested on: TMD5
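Also: ALL cell lines in 384-well plates, five doses spanning 10,000-fold, each plate scaled between vehicle and 100 µmol/L benzalkonium chloride controls, sDSS an adapted area-under-curve metric.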

Structure (SMILES)	selective drug sensitivity score 380	selective drug sensitivity score 697	selective drug sensitivity score (ALL-PO)	selective drug sensitivity score (CCRF-HSB2)	selective drug sensitivity score (COG-LL-317)	selective drug sensitivity score (COG-LL-319h)	selective drug sensitivity score (COG-LL-394h)	selective drug sensitivity score (COG-LL-402h)	selective drug sensitivity score (JURKAT)	selective drug sensitivity score (KOPN-8)	selective drug sensitivity score (MHH-CALL-2)	selective drug sensitivity score (MHH-CALL-4)	selective drug sensitivity score (MN-60)	selective drug sensitivity score (MOLT-14)	selective drug sensitivity score (MOLT-16)	selective drug sensitivity score (MOLT-4)	selective drug sensitivity score (P12-ICHIKAWA)	selective drug sensitivity score (PEER)	selective drug sensitivity score (TANOUE)	selective drug sensitivity score (TMD5)
O=C(O)c1ccc(CN2CCC(CN[C@@H]3C[C@H]3c3ccccc3)CC2)cc1 (top concentration 100000 nM)	-0.62	-0.42	2.08	-0.12	6.48	-0.62	-0.62	-0.62	-0.62	-0.62	-0.02	0.58	-0.62	-0.62	0.28	-0.62	-0.62	-0.22	-0.62	-0.62
CC[C@@H]1[C@H](F)C(=O)N[C@@H]1COc1nccc2cc(C(N)=O)c(OC)cc12 (top concentration 10000 nM)	-1.32	1.88	2.08	1.88	1.28	2.88	0.38	3.08	0.48	1.78	-0.22	-0.92	5.88	1.38	0.98	2.48	0.18	1.08	-0.22	-1.32
CONC(=O)c1ccccc1Nc1cc(Nc2cc(C)nn2C(C)C)ncc1Cl (top concentration 1000 nM)	1.16	-0.94	-0.14	-0.94	-0.94	9.66	-0.94	-0.94	-0.94	3.86	-0.94	-0.94	-0.94	-0.94	-0.94	-0.94	-0.94	-0.94	0.36	-0.94
CCC1(c2ccc(N)cc2)CCC(=O)NC1=O (stereo not given) [Aminoglutethimide] (top concentration 10000 nM)	0	0	0	0	0	0	0	0	0	0	2.4	0.5	0	0	0	0	0	0	0	0
CC(O)c1cc(C(=O)N[C@@H](C)Cn2ccc(-c3ccc(C#N)c(Cl)c3)n2)n[nH]1 (stereo not given in full) [ODM-201] (top concentration 2500 nM)	-0.08	0.12	0.52	1.62	1.22	10.6	-0.28	4.62	0.72	0.02	0.02	-0.28	-0.28	0.82	1.82	-0.18	0.22	1.02	2.32	-0.28
COc1cc(N2CCN(C)CC2)ccc1Nc1nccc(-c2cn(C)c3cnccc23)n1 [AZ191] (top concentration 10000 nM)	-2.42	1.08	3.58	1.18	0.58	-2.92	-0.72	-0.22	-3.02	2.18	3.88	1.98	-1.92	-1.32	-1.32	-3.32	-2.22	-1.92	-4.62	-4.32
O=C(O)CC[C@H]1CC[C@@](c2cc(F)ccc2F)(S(=O)(=O)c2ccc(Cl)cc2)CC1 [MK-0752] (top concentration 1000 nM)	4.6	0	0	1	0	0	0	0	0	0	3.8	0	0	0	0	0	0	0	0	0
Clc1ccccc1C(c1ccccc1)(c1ccccc1)n1cccn1 [TRAM-34] (top concentration 1000 nM)	-0.08	-0.08	-0.08	-0.08	-0.08	-0.08	-0.08	-0.08	-0.08	-0.08	1.12	-0.08	-0.08	-0.08	-0.08	-0.08	-0.08	-0.08	-0.08	-0.08
Cc1ccc(NS(=O)(=O)c2cccc(C#N)c2)c2[nH]cc(C#N)c12 [E7820] (top concentration 50000 nM)	30.8	21.7	4.92	18	21.9	18	-1.58	17.2	21.7	19.8	19.4	7.62	-1.88	21.3	22.6	1.82	15.4	17.8	-6.28	7.32
COc1cc(C)c(/C=C/C(C)=C/C=C/C(C)=C/C(=O)O)c(C)c1C [Acitretin] (top concentration 10000 nM)	15.2	0.6	-0.3	0	-0.5	-1.6	-1.6	-0.1	-1.2	1.8	-0.7	-1.6	-1.6	-1.4	-0.4	-1.2	-0.8	-0.6	-1.6	-1.6
COc1cc(CCc2cc(NC(=O)c3ccc(N4CC(C)NC(C)C4)cc3)n[nH]2)cc(OC)c1 (stereo not given) [AZD4547] (top concentration 1000 nM)	-0.14	-0.04	0.46	-0.14	-0.14	-0.04	0.16	-0.14	-0.14	-0.14	-0.14	-0.14	-0.14	-0.14	-0.14	-0.14	-0.14	-0.14	-0.14	-0.14
CNC(=O)c1ccc(C)c(-n2c(C)cc(OCc3ccc(F)cc3F)c(Br)c2=O)c1 (top concentration 1000 nM)	0	2	0	0	0	0	0	0	0.9	0.7	4.9	5	0	0	0	0	0	0	0	0
O=C(NOCCO)c1ccc2cncn2c1Nc1ccc(I)cc1F [GDC-0623] (top concentration 2500 nM)	-0.4	-2.5	-3.3	0.8	-0.8	-2.1	-3.4	-3.2	-3.2	-1.2	0.6	-2.1	-3.4	-1.6	-1.6	-3.3	-1.7	-0.1	-3.4	-0.7
Cc1cc2c(F)c(Oc3ncnn4cc(OC[C@@H](C)O)c(C)c34)ccc2[nH]1 [Brivanib] (top concentration 1000 nM)	-0.04	0.66	-0.04	-0.04	-0.04	-0.04	-0.04	-0.04	1.46	0.16	-0.04	-0.04	2.76	0.26	-0.04	-0.04	1.56	-0.04	-0.04	-0.04
Nc1cccc2c1C(=O)N(C1CCC(=O)NC1=O)C2=O (stereo not given) [Pomalidomide] (top concentration 10000 nM)	-0.26	1.74	8.14	-0.26	-0.26	-0.26	0.04	0.64	-0.26	-0.26	-0.16	7.54	-0.26	-0.26	-0.26	-0.26	-0.26	-0.26	-0.26	-0.26
CN1C(=O)N[C@H](Cc2c[nH]c3c(Cl)cccc23)C1=O [Necrostatin_2] (top concentration 10000 nM)	-0.08	-0.08	-0.08	-0.08	-0.08	-0.08	-0.08	-0.08	-0.08	-0.08	-0.08	-0.08	-0.08	-0.08	-0.08	-0.08	-0.08	-0.08	-0.08	-0.08
CCNc1nc(Nc2cc(F)c(C(=O)N3CCOCC3)cc2OC)ncc1C(F)(F)F [GNE-7915] (top concentration 1000 nM)	-0.06	-0.06	-0.06	-0.06	0.34	-0.06	-0.06	-0.06	-0.06	-0.06	1.74	-0.06	-0.06	-0.06	-0.06	-0.06	-0.06	-0.06	-0.06	5.44
CC(O)(CS(=O)(=O)c1ccc(F)cc1)C(=O)Nc1ccc(C#N)c(C(F)(F)F)c1 (stereo not given) [Bicalutamide] (top concentration 10000 nM)	1.72	-0.68	3.92	-1.28	0.52	3.72	-0.18	-1.68	0.42	4.92	-1.68	-1.68	1.42	2.52	6.92	2.32	-0.88	-0.18	-1.28	-0.88
COc1cc(Nc2c(C#N)cnc3cc(OCCCN4CCN(C)CC4)c(OC)cc23)c(Cl)cc1Cl [Bosutinib] (top concentration 10000 nM)	-0.64	5.86	0.36	27	-2.64	1.66	1.16	5.66	-0.74	4.56	7.66	-3.14	-3.24	1.86	0.16	-0.64	0.96	9.16	-7.74	9.06
